Measurements taken from patent publication US5380724A, “Piperazine and homopiperazine derivatives, pharmaceutical compositions containing them and process for preparing same” (Gyogyszerkutato Intezet KFT, priority 1992, dated 1995).

Experiments:
[1] = test system: arachidonic acid (ferrous ion dependent peroxidation); test: inhibition of the ferrous ion dependent peroxidation of arachidonic acid; assay type: biochemical; settings: Fe2+ dependent peroxidation of arachidonic acid
Protocol: 2. The inhibition of the ferrous ion dependent peroxidation of arachidonic acid was also measured by the method of J. M. Braughler et al. [J. Biol. Chem. 262, 10438 (1987)] and J. A. Buege and S. D. Aust [Methods in Enzymology 52, 302 (1978)]. The IC50 values (expressed in micromols) of some compounds of the invention, further those of the reference compounds determined in this test are shown in Table 2.

[2] = test system: ischemia induced weight increase of the small intestine; test: inhibition of ischemia induced weight increase of a definite section in the small intestine of rats; assay type: in vivo; settings: Rattus norvegicus, 25 mg/kg oral
Protocol: 2. […] The percentage of inhibition observed after administration of a 25 mg/kg oral dose of the compounds of the invention or of the reference compounds is shown in Table 5.

[3] = test system: rat brain homogenate (ferrous ion dependent lipid peroxidation); test: ferrous ion dependent lipid peroxidation inhibitory activity on rat brain homogenate (thiobarbituric acid reactive substances); assay type: biochemical; settings: Fe2+ dependent lipid peroxidation, TBARS
Protocol: 1. The ferrous ion dependent lipid peroxidation inhibitory activity was measured on rat brain homogenate by using the method descibed by J. M. Braughler et al., [J. Biol. Chem. 262, 10438 (1987)] and J. A. Buege and S. D. […] The IC50 value is defined as the concentration of a test substance which reduces by 50% the amount of the thiobarbituric acid reactive substances (chiefly malondialdehyde) considered to be a characteristic parameter of lipid peroxidation.

acute brain injury = test: inhibition of acute brain injury of mice (improvement in the neurological state); assay type: in vivo; settings: intravenous
Source text: 1. […] 68, 456 (1988)]. The doses of the test compounds administered by the intravenous route and the percentage of improvement in the neurological state are summarized in Table 4.

[4] = test system: NADPH dependent lipid peroxidation; test: inhibition of the NADPH dependent lipid peroxidation; assay type: biochemical
Protocol: 3. Inhibiton of the NADPH dependent lipid peroxidation was measured according to T. J. Player and A. A. Horton [J. Neurochem. 37, 422 (1981)] and Z. Duniec [Biochem. Pharmacol. 32, 2283 (1983)]. The IC50 values (expressed in micromols) of some compounds of the invention, further those of the reference compounds determined in this test are given in Table 3.

acute toxicity in rats = assay type: in vivo; settings: rat, in vivo, oral

SMILES | IC50 [1] | IC50 [3] | inhibition in vivo at 25 mg/kg [2] | other results
Nc1cc(N2CCN(C(c3ccccc3)(c3ccccc3)c3ccccc3Cl)CC2)nc(N)n1 [Example 12] | – | 18 µM | 52% | Improvement (in the neurological state) (acute brain injury; 10 mg/kg): 46%
CCCCCCCCCCCCCCCCCC(=O)N1CCN(c2cc(N)nc(N)n2)CC1 [Example 7] | – | – | 34% | –
Nc1cc(N2CCN(CC(O)COc3ccc4ccccc4c3)CC2)nc(N)n1 (stereo not drawn) [Example 24] | – | – | 20% | –
Nc1nc(N)c2nc(-c3ccc(NCCCN4CCNCC4)cc3)c(N)nc2n1 [Example 56, 6-[4-[3-(1-Piperazinyl)propylamino]phenyl]-2,4,7-triamino-pteridine] | – | – | 44% | –
Nc1cc(N2CCN(CC(O)COc3cccc4ccccc34)CC2)nc(N)n1 (stereo not drawn) [Example 20, 1-[2-Hydroxy-3-(1-naphthyloxy)-propyl]-4-(2,6-diamino-4-pyrimidinyl)piperazine] | – | 94 µM | 28% | –
Nc1nc(N2CCNCC2)c2nc(-c3ccccc3)c(N)nc2n1 [Example 59, 1-(2,7-Diamino-6-phenyl-4-pteridinyl)piperazine] | – | – | 30% | –
Nc1nc(N)c2nc(-c3ccc(NC(=O)CN4CCNCC4)cc3)c(N)nc2n1 [Example 55] | – | – | 47% | –
Nc1nc(N)c2nc(-c3ccc(OCC(O)CN4CCN(C(c5ccccc5)(c5ccccc5)c5ccccc5Cl)CC4)cc3)c(N)nc2n1 (stereo not drawn) [Example 39] | – | – | 34% | –
OC(COc1cccc2ccccc12)CN1CCN(c2cc(N3CCCC3)nc(N3CCCC3)n2)CC1 (stereo not drawn) [Example 22] | – | 13 µM | – | –
CCCCCCCCCCCCCCCCCC(=O)N1CCCN(c2cc(N3CCCC3)nc(N3CCCC3)n2)CC1 [Example 6] | – | – | 25% | –
OC(COc1cccc2ccccc12)CN1CCCN(c2cc(N3CCCC3)nc(N3CCCC3)n2)CC1 (stereo not drawn) [Example 23] | – | 9 µM | 52% | IC50 [4]: 13 µM
Nc1cc(N2CCN(C(c3ccccc3)(c3ccccc3)c3ccccc3)CC2)nc(N)n1 [Example 9, 1-Trityl-4-(2,6-diamino-4-pyrimidinyl)piperazine] | – | 51 µM | 37% | –
CCCCCCCCCCCCCCCCCCN1CCN(c2cc(N)nc(N)n2)CC1 [Example 4] | – | – | 46% | –
O=C1CCCc2cc(OCC(O)CN3CCCN(c4cc(N5CCCC5)nc(N5CCCC5)n4)CC3)ccc21 (stereo not drawn) [Example 30] | – | 12 µM | 42% | IC50 [4]: 16 µM
C[C@@H]1C[C@H]2[C@@H]3CCC4=CC(=O)C=C[C@]4(C)C3=CC[C@]2(C)[C@H]1C(=O)CN1CCN(c2cc(N3CCCC3)nc(N3CCCC3)n2)CC1 [Example U74006F, 21-[4-[2,6-di(1-pyrrolidinyl)-4-pyrimidinyl]-1-piperazinyl]-16α-methyl-pregna-1,4,9(11)-triene-3,20-dione, reference compound] | > 100 µM | 39 µM | 59% | IC50 [4]: > 100 µM; Improvement (in the neurological state) (acute brain injury; 30 mg/kg): 77%; LD50 (acute toxicity in rats): > 1000 mg/kg
Cc1cc(C(C)(C)C)c(O)c(C(C)(C)C)c1 [BHT, 3,5-di(tert-butyl)-4-hydroxytoluene, reference compound] | > 100 µM | 1 µM | – | IC50 [4]: 2 µM
c1ccc(C(c2ccccc2)(c2ccccc2)N2CCCN(c3cc(N4CCCC4)nc(N4CCCC4)n3)CC2)cc1 [Example 11] | – | – | 57% | –
Nc1cc(N2CCCN(CC(O)COc3ccc4ccccc4c3)CC2)nc(N)n1 (stereo not drawn) [Example 25] | – | – | 35% | –
Nc1nc2nc(N3CCN(C(c4ccccc4)(c4ccccc4)c4ccccc4Cl)CC3)nc(N)c2nc1-c1ccccc1 [Example 15] | – | – | 32% | –
Nc1nc(N)c2nc(C(=O)N3CCN(C(c4ccccc4)(c4ccccc4)c4ccccc4Cl)CC3)c(N)nc2n1 [Example 16] | – | – | 45% | –
O=c1[nH]ncc(N2CCN(C34CC5CC(CC(C5)C3)C4)CC2)c1Cl [Example 18, 1-(1-Adamantyl)-4-(4-chloro-3-oxo-2,3-dihydro-5-pyridazinyl)piperazine] | – | – | 31% | –
OC(COc1ccc2ccccc2c1)CN1CCN(c2cc(N3CCCC3)nc(N3CCCC3)n2)CC1 (stereo not drawn) [Example 26] | – | 19 µM | 45% | IC50 [4]: 59 µM
Nc1cc(N2CCN(C(=O)COc3cccc4ccccc34)CC2)nc(N)n1 [Example 31, 1-[2-(1-Naphthyloxy)acetyl]-4-(2,6-diamino-4-pyrimidinyl)piperazine] | – | – | 79% | –
C=CCCCCCCCCC(=O)N1CCN(c2cc(N)nc(N)n2)CC1 [Example 3, 1-(10-Undecenoyl)-4-(2,6-diamino-4-pyrimidinyl)-piperazine] | – | 52 µM | 31% | –

Second part, led by results:

IC50 [1] | IC50 [3] | SMILES | inhibition in vivo at 25 mg/kg [2] | other results
12 µM | – | Nc1nc(N)c2nc(-c3ccc(NCC(O)CN4CCNCC4)cc3)c(N)nc2n1 (stereo not drawn) [Example 52] | 34% | –
28 µM | – | Nc1nc(N)c2nc(-c3ccc(OCC(O)CN4CCCNCC4)cc3)c(N)nc2n1 (stereo not drawn) [Example 51] | – | –
– | 30 µM | O=C(COc1cccc2ccccc12)N1CCCN(c2cc(N3CCCC3)nc(N3CCCC3)n2)CC1 [Example 36] | 24% | –
– | 20 µM | O=C(COc1cccc2ccccc12)N1CCN(c2cc(N3CCCC3)nc(N3CCCC3)n2)CC1 [Example 33, 1-[2-(1-Naphthyloxy)acetyl]-4-[2,6-di(1-pyrrolidinyl)-4-pyrimidinyl]piperazine] | 53% | –
17 µM | – | Nc1nc(N)c2nc(-c3ccc(OCC(O)CN4CCN(C56CC7CC(CC(C7)C5)C6)CC4)cc3)c(N)nc2n1 (stereo not drawn) [Example 37, 6-[4-[3-[4-(1-Adamantyl)-1-piperazinyl]-2-hydroxypropoxy]phenyl]-2,4,7-triaminopteridine] | 35% | –
17 µM | – | Nc1nc(N)c2nc(-c3ccc(SCC(O)CN4CCNCC4)cc3)c(N)nc2n1 (stereo not drawn) [Example 54] | 56% | –
0.9 µM | – | CN(CC(O)CN1CCNCC1)c1ccc(-c2nc3c(N)nc(N)nc3nc2N)cc1 (stereo not drawn) [Example 53] | 56% | –
49 µM | – | Nc1nc2nc(N3CCN(C45CC6CC(CC(C6)C4)C5)CC3)nc(N)c2nc1-c1ccccc1 [Example 57, 1-(1-Adamantyl)-4-(4,7-diamino-6-phenyl-2-pteridinyl)piperazine] | – | –
2 µM | 7 µM | Cc1c(C)c2c(c(C)c1O)CCC(C)(CCCC(C)CCCC(C)CCCC(C)C)O2 (stereo not drawn) [α-tocopherol, reference compound] | – | IC50 [4]: > 100 µM; Improvement (in the neurological state) (acute brain injury; 30 mg/kg): 97%
> 50 µM | 0.3 µM | Cc1c(C)c2c(c(C)c1O)CCC(C)(CN1CCN(c3cc(N4CCCC4)nc(N4CCCC4)n3)CC1)O2 (stereo not drawn) [Example U78517F, 2-[[4-[2,6-di(1-pyrrolidinyl)-4-pyrimidinyl]-1-piperazinyl]methyl]-6-hydroxy-2,5,7,8-tetramethyl-3,4-dihydro-2H-1-benzopyrane, reference compound] | 20% | IC50 [4]: 0.7 µM; Improvement (in the neurological state) (acute brain injury; 20 mg/kg): 31%
38 µM | – | Nc1nc2nc(N3CCNCC3)nc(N)c2nc1-c1ccccc1 [Example 58, 1-(4,7-Diamino-6-phenyl-2-pteridinyl)piperazine] | – | –
